{"source": "patent US20190010524A1", "about": "“BIOLOGICAL METHODS FOR PREPARING A FATTY DICARBOXYLIC ACID” (Verdezyne, Inc., priority 2012, published 2019)", "key": {"[1]": {"tested_on": "Candida strain ATCC 20962", "assay": "Bioreactor conversion of ethyl decanoate to sebacic acid (Example 73)", "assay_type": "cell-based", "settings": "decane induction", "procedure": "(§1) By conversion tests for ethyl decanoate were performed in 0.5 L Infors HT Multifors bioreactors (Infors AG, Switzerland) with working volumes of 0.4 L each. […] Fermentation medium. […] Bioreactors were equipped with two rushton impellers rotating at 1000 rpm. Bioreactors were inoculated to an OD of approximately 0.2 and growth continued for approximately 12-14 hours, at which point the conversion phase was initiated by evenly space boluses of ethyl decanoate. Culture pH was kept constant at 5.8 during the growth phase by automatic addition of 6 N KOH and temperature and airflow were controlled at 30° C. and 1 vvm respectively.\n(§2) At induction, the pH was changed to 6.2 and maintained by addition of 6N KOH. Bioreactors were induced with an initial 4.0 ml bolus of decane for 6 hours with an airflow rate of 0.25 vvm to minimize evaporation.\nFollowing this initial 6 hour induction, airflow was increased to 1 vvm and 58 μl of ethyl decanoate was added every 30 minutes for the next 6 hours. Ethyl decanoate boluses were then increased to 116 μl at a frequency of once per hour for the next 36 hours. In addition, a co-feed of dextrose was fed at a rate of 1.25 g/L-h. Final samples were taken 12 hours after the final ethyl decanoate bolus. […]"}, "[2]": {"tested_on": "strain sAA1082", "assay": "Bioreactor conversion of ethyl decanoate to sebacic acid (Example 73)", "assay_type": "cell-based, Candida", "procedure": "as §1, §2\n(§3) Following this initial 6 hour induction, airflow was increased to 1 vvm and 58 μl of ethyl decanoate was added every 30 minutes for the next 6 hours. Ethyl decanoate boluses were then increased to 116 μl at a frequency of once per hour for the next 36 hours. In addition, a co-feed of dextrose was fed at a rate of 1.25 g/L-h. Final samples were taken 12 hours after the final ethyl decanoate bolus. Yield calculations were made for all cultures taking only added ethyl decanoate into account due to the volatility of decane and the lack of decanedioic acid formation following the initial induction period."}, "[3]": {"tested_on": "strain sAA2178", "assay": "Bioreactor conversion of ethyl decanoate to sebacic acid (Example 73)", "assay_type": "cell-based, Candida", "procedure": "as §1, §2, §3"}, "[4]": {"tested_on": "Candida", "settings": "stated as background; cited from earlier work"}, "[5]": {"tested_on": "Candida tropicalis (ATCC20962)", "assay": "Fermentation procedure for conversion of decane to sebacic acid (Example 3)", "assay_type": "cell-based", "settings": "GC at 44 hours after initiating the conversion phase, FIG. 16", "procedure": "Filter sterilized modified SP92-glycerol fermentation medium (6.7 g/L yeast nitrogen base, 3.0 g/L yeast extract, 3.0 g/L (NH4)2SO4, 1.0 g/L K2HPO4, 1.0 g/L KH2PO4, 20 g/L glycerol) is transferred to a sterile fermentation vessel. Growth of Candida tropicalis (ATCC20962) is inoculated to an initial OD600nm of about 1.0 with a 5% inoculum and growth carried out under the following conditions: 30° C. with shaking at about 1000 rpm, 1 volume per volume per minute aeration (vvm), pH 5.8 and initial volume of 0.3 L. Growth proceeds for approximately 8 hours and the conversion phase is initiated by the addition of decane to 2 g/L. Continuous feeds for decane (1 g/L-h) and glucose (1.5 g/L-h) are initiated at the same time as the addition of the decane bolus. Fermentation conditions are maintained at 30° C., 1000 rpm, 1 vvm, and pH 5.8 for 44 hours.\nSamples were collected for GC analysis at 44 hours after initiating the conversion phase. […] Significant evaporative losses from the decane feed bottles prevented an accurate determination of product yield."}, "[6]": {"tested_on": "Candida", "assay": "Toxicity of feedstock or by-product to the yeast (viable cell counts)", "assay_type": "cell-based", "source_text": "Methyl esters of fatty acids can be converted to the corresponding diacid by beta-oxidation-blocked strains of Candida since Candida produces an esterase that demethylates the fatty acid ester during the omega-oxidation process, allowing conversion of methyl decanoate into the non-toxic diacid, sebacic acid. Unfortunately, having an excess of methyl decanoate in the fermentation broth prior to induction of the enzymes involved in omega-oxidation process results in sufficient demethylation of methyl decanoate to produce toxic levels of decanoic acid, resulting in rapid cell death and a failed fermentation. The standard fermentation procedure would utilize the feedstock (methyl decanoate) as inducer.\nGrowth was initiated with an inoculum of pre-culture to an initial OD600nm=1.0 and growth conditions of 35° C., 1000 rpm, 1 vvm, pH 5.8. Growth continued for approximately 10-12 h at which point the conversion phase was induced by the addition of either: 1) a bolus of 10 g/L of decane (Sigma-Aldrich #457116) for 6 h after which a continuous feed of methyl decanoate (TCI America #D0023) at 0.25 g/L-h was initiated or 2) no addition of decane. Induction was performed by initiating a continuous feed of methyl decanoate at 0.25 g/L-h. Because of the volatility of decane, the aeration rate was reduced to 0.3 vvm during the 6-h induction phase with decane as inducer. […]"}}}
{"smiles": "CCCCCCCCCC(=O)OCC", "note": "[Ethyl decanoate]", "values": [{"measurement": "Feedstock Yield (g sebacic acid/g feedstock) ATCC 20962", "setting": "[1]", "result": "0.685 g sebacic acid/g feedstock"}, {"measurement": "% improvement over ATTC 20962 sAA1082", "setting": "[2]", "result": 58.9, "unit": "%"}, {"measurement": "Feedstock Yield (g sebacic acid/g feedstock) sAA1082", "setting": "[2]; bioreactor, decane induction", "result": "1.088 g sebacic acid/g feedstock"}, {"measurement": "% improvement over ATTC 20962 sAA2178", "setting": "[3]", "result": 50.7, "unit": "%"}, {"measurement": "Feedstock Yield (g sebacic acid/g feedstock) sAA2178", "setting": "[3]; bioreactor, decane induction", "result": "1.032 g sebacic acid/g feedstock"}]}
{"smiles": "CCCCCCCCCCCC(=O)O", "note": "[Lauric acid]", "values": [{"measurement": "toxicity to Candida", "setting": "[4]", "result": "not as toxic to Candida as is decanoic acid"}]}
{"smiles": "CCCCCCCCCC", "note": "[decane]", "values": [{"measurement": "conversion of decane", "setting": "[5]", "result": "converted exclusively to the C10 dicarboxylic acid, sebacic acid"}]}
{"smiles": "CCCCCCCCCC(=O)O", "note": "[decanoic acid]", "values": [{"measurement": "toxicity to Candida (viable cell count data)", "setting": "[6]", "result": "demonstrates the toxicity"}, {"measurement": "toxicity to Candida", "setting": "[4]", "result": "high degree of toxicity"}]}
{"smiles": "CCCCCCCCCC(=O)OC", "note": "[methyl decanoate]", "values": [{"measurement": "toxicity to Candida", "setting": "[4]", "result": "very low toxicity"}]}
